Reference: EP3050886A1, “Fluorescent dyes and dye precursors” (Bürkert Werke GmbH, priority 2015, dated 2016)
Entries after “also recorded” stand apart in the source; their conditions may differ.

Legend:
[1] = Short-term chemical stability (spontaneous fluorescence generation) in aqueous buffer; assay type: physicochemical; settings: for chemical stability in aqueous solution (in words): PBS solution containing 0.6 % glutaraldehyde, 37°C; for relative speed of spontaneous fluorescence generation (spontaneous hydrolysis): relative to 5-CFDA, 15 µM, PBS containing 0.6 % glutaraldehyde, pH ~7, 37°C, 0-60 min
Protocol: The short-term chemical stability of the pro-fluorophores of the present invention in an aqueous buffer was evaluated by fluorometric measurement analysis after several minutes of storage at 37°C.
Each pro-fluorophore (5-CFDA, 5-PFDAE, 5-PFDAT, 5-PFDA, 5-COGDA, 5-POGDA, 5-POGAM) was dissolved in dimethylsulfoxide (DMSO) in order to prepare a 10 mM stock solution. Short-term stability studies (0-60 min) were performed in the absence of light at 37°C. The pro-fluorophore stock solutions were diluted into a PBS solution containing 0.6 % of glutaraldehyde (pH ∼7). The pro-fuorophore final concentration was 15 µM. Samples were stored in a fluorescence grade quartz cuvette having a volume of 1 ml. Fluorescence emission spectra between 500 and 540 nm were recorded every 10 minutes. The excitation wavelength used was 488 nm. Fluorometric measurement were made with a FluoroLog®-3. (Horiba Jobin Yvon) spectrofluorometer equipped with sample stirring. The same experiment was repeated three times (n = 3).
Thus, the slope of the straight line corresponds to the speed of spontaneous fluorescence generation.

[2] = Long-term stability in anhydrous DMSO (UHPLC-MS/MS); assay type: physicochemical; settings: 120 µM in anhydrous DMSO, room temperature (23 ± 2 °C), absence of light, after 77 days
Protocol: To examine whether the pro-fluorophores 5-POGDA and 5-POGAM could be stored for at least two months in solution at room temperature (23 ± 2 °C) and in the absence of light, they were dissolved in anhydrous DMSO solvent and analysed by liquid chromatography-mass spectrometry. The analysis was performed using an UHPLC-MS/MS system (LC-MS 8030, Shimadzu). 5-POGDA or AM (120 µM) were stored in anhydrous DMSO. A solution of 5-CFDA (20 µM) in acetonitrile stored at -80°C was used as internal reference for HPLC-MS/MS analysis. The solution injected was composed of 5-POGDA or AM (1.2 µM), and 5-CFDA (0,2 µM) in H2O/acetonitrile, ratio 1/1 (V/V).
Data acquisition and analysis were performed using LabSolutions version 5 software. A 1.7 µm Kinetex™ column (50 X 2.1 mm) was used for HPLC. The mobile phase flow rate was fixed at 0.5 ml/min and the following program was applied for the elution: 0-1.2 min, 5-95% B; 1.2-1.4 min, 95% B; 1.4-1.42 min, […] and 1.42-2.8 min, 5% B. Solvent A consisted of 0.05% formic acid in water and solvent B was HPLC grade acetonitrile. 1 µl was injected.
The mass spectrometer was interfaced with the UHPLC system using an electrospray ion source. […] The percentage of remaining test compound relative to t0 was measured using the peak area on the chromatogram.

Citobacter freudii = test: Bacteria staining test, fluorescence microscopy (data not shown); assay type: cell-based
Protocol: (§1) Bacteria (100 µl suspension at 1·10^9 bacteria/ml) were stained with 10 µM or 15 µM of pro-fluorophore (5-CFDA, 5-PFDAE, 5-PFDAT, 5-PFDA, 5-COGDA, 5-POGDA or 5-POGAM) in 200 µl of PBS solution containing 0.6 % of glutaraldehyde. Bacteria were incubated at 37 °C for 10 - 60 min with pro-fluorophore in darkness. After bacterial staining, they were washed and resuspended in 100 µl of PBS as described above.
(§2) Staining of the bacterial suspension was observed under a fluorescent microscope. These bacteria were imaged with a Leica DM5500 microscope equipped with FITC filter. […] Images were collected with a 100x objective. Fluorescence intensity of stained bacterial suspension was also measured with FluoroLog®-3 (Horiba Jobin Yvon) spectrofluorometer equipped with sample stirring. Samples were placed in fluorescence grade quartz cuvette having a volume of 1 ml. The excitation wavelength used was 488 nm and emission wavelength used was 517 nm. The same experiment was repeated three times (n = 3).
(§3) No fluorescence signal was detected by microscopy analysis with the dead bacteria.

[3] = system: Comamonas testosteroni/alcaligenes; test: as above; assay type: cell-based
Protocol: as §1, §2, §3

Klebsiella oxytoca = test: as above; assay type: cell-based
Protocol: as §1, §2, §3

E. coli (ATCC 8739) = test: Labeling of viable or dead E. coli, fluorescence microscopy; assay type: cell-based, Escherichia coli; settings: 15 µM, 30 min at 37 °C, Figure 4
Protocol: Escherichia coli (E. coli) (ATCC 8739) and Bacillus subtilis (B. subtilis) (ATCC 6633) strains were routinely grown in Luria Bertani (LB) broth or on LB agar plates for 18h at 37 °C. Waterborne environmental bacteria such as Enterobacter cloacae (E. cloacae), Chryseobacterium indologenes (C. indologenes), Pseudomonas aeruginosa (P. aeruginosa), and E. coli (EC18) were purchased from Eurofins™. Environmental bacteria were grown in LB broth or on casein-peptone soymeal-peptone agar plates for 18h at 37 °C.
For the staining tests, E. coli (ATCC 8739 or EC18), E. cloacae, C. indologenes, P. aeruginosa and B. subtilis were cultivated in Luria-Bertani (LB) broth until exponential phase at 37°C with shaking at 300 rpm revolutions per minutes (rpm). Bacteria were harvested and washed in sterile phosphate buffer saline solution (PBS) at pH […] by centrifugation at 10000 rpm for 3 min at room temperature (21 ± 2 °C). Then the bacteria were resuspended in PBS at a concentration of 1·10^9 bacteria/ml. Bacteria concentration was calculated according to the turbidity measure at 660 nm (A660nm=1 correspond to bacterial suspension at ∼ 5·10^8 bacteria/ ml).
Dead bacterial suspensions at 1·10^9 bacteria/ml (negative controls) of these five species of bacteria were prepared individually by addition of 20 µl of bleach containing 2.6 % active chlorine. Bacteria were treated with bleach solution for 15 min. Dead bacteria were washed twice in sterile PBS by centrifugation at 10000 rpm for 3 min at room temperature. The culturability of the negative controls was assessed by plating 100 µl of bacterial suspension onto LB agar or Caso agar and incubating the plates at 37 °C for 72 h.
as §1, §2
The pro-fluorophores according to the present invention are preferably used to label E. coli cells. Viable or dead E. coli (ATCC 8739) are incubated with these fluorophores and commercial 5-CFDA as described above. […] Glutaraldehyde is added to the incubation solutions to improve the retention of the fluorophores in bacteria.
Bacteria were washed before being imaged with a Leica DM5500 microscope, 100x objective. Scale bars indicate 10 µm.

Row | SMILES | chemical stability in aqueous solution (in words) [1] | relative speed of spontaneous fluorescence generation (spontaneous hydrolysis) [1] | percentage remaining in the solution [2] | staining of viable versus dead bacteria (Citobacter freudii) | staining of viable versus dead bacteria [3] | staining of viable versus dead bacteria (Klebsiella oxytoca) | staining of viable E. coli (microscopy) (E. coli (ATCC 8739))
1 | CCCNC(=O)c1ccc2c(c1)C(=O)OC21c2cc(F)c(OCOC(C)=O)cc2Oc2cc(OCOC(C)=O)c(F)cc21 [Example 5-POGAM, 2',7'-difluoro-3-oxo-5-(propylcarbamoyl)-3H-spiroisobenzofuran-1,9'-xanthene-3',6'-diyl diacetoxymethyl ether] | greater chemical stability in aqueous solution; also recorded: much more stable in aqueous solution | almost four times slower | ~65% | The same results were obtained | The same results were obtained | The same results were obtained | specifically stained with high fluorescence intensity
2 | CCCNC(=O)c1ccc2c(c1)C(=O)OC21c2cc(F)c(OC(C)=O)cc2Oc2cc(OC(C)=O)c(F)cc21 [Example 5-POGDA, 2',7'-difluoro-3-oxo-5-(propylcarbamoyl)-3H-spiro[isobenzofuran-1,9'-xanthene]-3',6'-diyl diacetate] | less stable | almost six times higher | around 18% | The same results were obtained | The same results were obtained | The same results were obtained | specifically stained with high fluorescence intensity
